In one data set the test system is Leptosphaeria nodorum. Kind of data set: In vivo preventive test on Leptosphaeria nodorum (wheat). The settings on record: preventive spray, 500 ppm of active ingredient, evaluated 7-9 days after inoculation. Here is the method: Solvent: 49 parts by weight of N,N-dimethylformamide Emulsifier: 1 part by weight of alkylaryl polyglycol ether To produce a suitable preparation of active compound, 1 part by weight of active compound is mixed with the stated amounts of solvent and emulsifier, and the concentrate is diluted with water to the desired concentration. To test for preventive activity, young plants are sprayed with a preparation of active compound at the stated rate of application. One day after this treatment, the plants are inoculated with an aqueous spore suspension of Leptosphaeria nodorum. The plants remain for 48 hours in an incubation cabinet at 22° C. and a relative atmospheric humidity of 100%. Then the plants are placed in a greenhouse at a temperature of approximately 22° C. and a relative atmospheric humidity of approximately 90%.

Data set [1] in a line: log P by HPLC on reversed-phase column (C 18), EEC Directive 79/831 Annex V.A8. The settings on record: 40° C., 0.1% aqueous formic acid and acetonitrile, linear gradient 10% to 90% acetonitrile. The format is physicochemical. The method, boiled down: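 Reversed-phase C18 HPLC at 40° C, 0.1% aqueous formic acid/acetonitrile gradient from 10% to 90% acetonitrile. log P derived from retention times by linear interpolation between unbranched alkan-2-ones (3–16 carbons) of known log P.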

A further data set concerns Alternaria solani. Briefly: In vivo preventive test on Alternaria solani (tomato). The note with it: preventive spray, 500 ppm of active ingredient, evaluated 7 days after inoculation. Here is the method:
(§1) Solvent: 49 parts by weight of N,N-dimethylformamide Emulsifier: 1 part by weight of alkylaryl polyglycol ether To produce a suitable preparation of active compound, 1 part by weight of active compound is mixed with the stated amounts of solvent and emulsifier, and the concentrate is diluted with water to the desired concentration. To test for preventive activity, young plants are sprayed with the preparation of active compound at the stated rate of application. One day after this treatment, the plants are inoculated with an aqueous spore suspension of Alternaria solani. The plants remain for one day in an incubation cabinet at approximately 22° C. and a relative atmospheric humidity of 100%. Then the plants are placed in an incubation cabinet at approximately 20° C. and a relative atmospheric humidity of 96%.

The test system of data set [2] is Pyrenophora teres. Kind of data set: In vivo preventive test on Pyrenophora teres (barley). The settings on record: preventive spray (DMF/alkylaryl polyglycol ether), 500 ppm of active ingredient, evaluated 7-9 days after inoculation. The method, boiled down:
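Young barley plants sprayed preventively with compound in DMF/emulsifier diluted in water, then inoculated one day later with aqueous P. teres spore suspension. Held 48 h at 22 °C and 100% relative humidity, then greenhouse at about 20 °C and 80% humidity.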

A further data set relates to Botrytis cinerea. Briefly: In vivo preventive test on Botrytis cinerea (cucumber). The settings on record: preventive spray (DMF/alkylaryl polyglycol ether), 500 ppm of active ingredient, evaluated 5-6 days after inoculation. How it is done:
as §1, with “Botrytis cinerea.” for “Alternaria solani.”, “two days” for “one day”, “14°” for “20°”

For another data set, the system named is Septoria tritici. Briefly: In vivo preventive test on Septoria tritici (wheat). The settings on record: preventive spray, 500 ppm of active ingredient, grading 24 days after contamination. Here is the method:
Wheat plants (“Scipion” variety), sown in starter cups on a 50/50 peat soil pozzolana substrate and grown at 22° C., are treated at the 1 leaf stage (10 cm height) by spraying with the active ingredient prepared as described above. Plants, used as controls, are treated with the mixture of acetone/tween/DMSO/water not containing the active material. After 24 hours, the plants are contaminated by spraying the leaves with an aqueous suspension of cryopreserved Septoria tritici spores (500 000 spores per mL). The contaminated wheat plants are incubated for 72 hours at 18° C. and at 100% relative humidity, and then for 21 days at 90% relative humidity. Grading (% of efficacy) is carried out 24 days after the contamination, in comparison with the control plants.

A further data set has as its system Puccinia recondita. Briefly: In vivo preventive test on Puccinia recondita (brown rust on wheat). The note with it: preventive spray, 500 ppm of active ingredient, grading 12 days after contamination. Here is the method:
Wheat plants (“Scipion” variety), sown in starter cups on a 50/50 peat soil pozzolana substrate and grown at 22° C., are treated at the 1 leaf stage (10 cm height) by spraying with the active ingredient prepared as described above. Plants, used as controls, are treated with the mixture of acetone/tween/DMSO/water not containing the active material. After 24 hours, the plants are contaminated by spraying the leaves with an aqueous suspension of Puccinia recondita spores (100 000 spores per mL). The spores are collected from an infected plant and are suspended in water containing 2.5 mL/L of Tween 80 at 10%. The contaminated wheat plants are incubated for 24 hours at 20° C. and at 100% relative humidity, and then for 10 days at 20° C. and at 70-80% relative humidity. Grading (% of efficacy) is carried out 12 days after the contamination, in comparison with the control plants.

The test system of a further data set is Sphaerotheca fuliginea. Kind of data set: In vivo preventive test on Sphaerotheca fuliginea (powdery mildew on cucurbits). The settings on record: gherkin plants, preventive spray, 500 ppm of active ingredient, grading 12 days after contamination. How it is done:
Gherkin plants (“Vert petit de Paris” variety), sown in starter cups on a 50/50 peat soil-pozzolana substrate and grown at 24° C., are treated at the Z11 cotyledon stage by spraying with the active ingredient prepared as described above. Plants, used as controls, are treated with the mixture of acetone/tween/DMSO/water not containing the active material. After 24 hours, the plants are contaminated by spraying the cotyledons with an aqueous suspension of Sphaerotheca fuliginea spores (100 000 spores per mL). The spores are collected from infected plants. The contaminated gherkin plants are incubated at about 20° C. and at 70-80% relative humidity. Grading (% of efficacy) is carried out 12 days after the contamination, in comparison with the control plants.

Data set [3] has as its system Pyrenophora teres. Briefly: In vivo preventive test on Pyrenophora teres (barley) - 2nd test. The note with it: 2nd test (acetone/tween/DMSO), 500 ppm of active ingredient, grading 14 days after contamination. Here is the method: Barley plants (“Plaisant” variety), sown in starter cups on a 50/50 peat soil pozzolana substrate and grown at 22° C., are treated at the 1 leaf stage (10 cm height) by spraying with the active ingredient prepared as described above. Plants, used as controls, are treated with the mixture of acetone/tween/DMSO/water not containing the active material. After 24 hours, the plants are contaminated by spraying the leaves with an aqueous suspension of Pyrenophora teres spores (12 000 spores per mL). The spores are collected from a 12-day-old culture. The contaminated barley plants are incubated for 48 hours at 20° C. and at 100% relative humidity, and then for 12 days at 20° C. at 70-80% relative humidity. Grading (% of efficacy) is carried out 14 days after the contamination, in comparison with the control plants.

A further data set relates to Uromyces appendiculatus. Kind of data set: In vivo preventive test on Uromyces appendiculatus (bean rust). The settings on record: bean plants, preventive spray, 500 ppm of active ingredient, grading 11 days after contamination. Here is the method:
Bean plants (“Saxa” variety), sown in starter cups on a 50/50 peat soil pozzolana substrate and grown at 24° C., are treated at the 2 leaf stage (9 cm height) by spraying with the active ingredient prepared as described above. Plants, used as controls, are treated with the mixture of acetone/tween/DMSO/water not containing the active material. After 24 hours, the plants are contaminated by spraying the leaves with an aqueous suspension of Uromyces appendiculatus spores (150 000 spores per mL). The spores are collected from infected plants and are suspended in water containing 2.5 mL/L of Tween 80 at 10%. The contaminated bean plants are incubated for 24 hours at 20° C. and at 100% relative humidity, and then for 10 days at 20° C. and at 70-80% relative humidity. Grading (% of efficacy) is carried out 11 days after the contamination, in comparison with the control plants.

A further data set deals with Alternaria brassicae. Kind of data set: In vivo preventive test on Alternaria brassicae (leaf spot on radish). The settings on record: preventive spray, 500 ppm of active ingredient, grading 6 days after contamination. How it is done:
Radish plants (“Pernod Clair” variety), sown in starter cups on a 50/50 peat soil pozzolana substrate and grown at 17° C., are treated at the cotyledon stage by spraying with the active ingredient prepared as described above. Plants, used as controls, are treated with the mixture of acetone/tween/DMSO/water not containing the active material. After 24 hours, the plants are contaminated by spraying the cotyledons with an aqueous suspension of Alternaria brassicae spores (50 000 spores per mL). The spores are collected from a 15-day-old culture. The contaminated radish plants are incubated at 20° C. and at 100% relative humidity. Grading (% of efficacy) is carried out 6 days after the contamination, in comparison with the control plants.

As usually defined, the logP is the decadic logarithm of the partition coefficient of the neutral form, usually between octanol and water.

With `C[Si](C)(CN(C(=O)c1nccnc1C(F)(F)F)C1CC1)c1cccc(Cl)c1` [Example 32], the Efficacy in the data set on Leptosphaeria nodorum was determined as 90%; with Alternaria solani, 89%; in the data set with Pyrenophora teres [2], 95%; in the data set with Botrytis cinerea it was 94%. In data set [1], this compound gave a logP of 4.56.
For `C[Si](C)(CN(C(=O)c1nccnc1C(F)(F)F)C1CC1)c1ccccc1Cl` [Example 26], the Efficacy came to 100% in the data set with Septoria tritici; 80% in the data set with Leptosphaeria nodorum; 92% with Puccinia recondita; 93% in the data set with Sphaerotheca fuliginea; 95% in the data set with Pyrenophora teres [2]; 99% with Botrytis cinerea. In data set [1], this compound gave a logP of 4.56.
On to `CC1=C(C(=O)NC[Si](C)(C)c2ccccc2Cl)SCCO1` [Example 42], for which the Efficacy with Septoria tritici turned out to be 100%; in the data set on Puccinia recondita it was 72%; in the data set on Pyrenophora teres [3] it was 93%. For the same compound, the logP in [1] is 3.50.
On to `C[Si](C)(Cc1ccccc1)CN(C(=O)c1nccnc1C(F)(F)F)C1CC1` [Example 93], for which the Efficacy in the data set on Leptosphaeria nodorum was 80%; in the data set with Alternaria solani, 75%; in the data set with Pyrenophora teres [2] it was 70%; in the data set with Botrytis cinerea, 100%. The logP in data set [1] turned out to be 4.44.
On to `C[Si](C)(CNC(=O)c1cccnc1C(F)(F)F)c1ccccc1` [Example 2], for which the Efficacy in the data set on Septoria tritici turned out to be 100%; in the data set on Puccinia recondita, 88%; with Uromyces appendiculatus, 100%; with Sphaerotheca fuliginea, 83%. The logP in [1] turned out to be 2.92.
Turning to `C[Si](C)(CN(C(=O)c1nccnc1C(F)(F)F)C1CC1)c1ccc2ccccc2c1` [Example 77], the Efficacy with Leptosphaeria nodorum is reported as 95%; with Alternaria solani it was 78%; with Pyrenophora teres [2] it was 100%; with Botrytis cinerea it was 95%. In data set [1], this compound showed a log partition coefficient (logP) of 4.80.
As to `C[Si](C)(CN(C(=O)c1cccnc1C(F)F)C1CC1)c1cccc(Cl)c1` [Example 34], the Efficacy with Leptosphaeria nodorum came to 80%; in the data set with Alternaria solani, 89%; with Pyrenophora teres [2], 100%; with Botrytis cinerea, 85%. The compound further displayed a logP in data set [1] of 3.87.
With `C[Si](C)(CN(C(=O)c1nccnc1C(F)(F)F)C1CC1)c1ccccc1F` [Example 14], the Efficacy in the data set with Septoria tritici turned out to be 93%; with Puccinia recondita, 98%; in the data set on Uromyces appendiculatus it was 84%; with Sphaerotheca fuliginea it was 98%; with Pyrenophora teres [2], 100%; with Alternaria brassicae, 95%. The same compound displayed a logP in data set [1] of 4.18.
For `C[Si](C)(CN(C(=O)c1cccnc1C(F)F)C1CC1)c1ccc(Cl)cc1Cl` [Example 62], the Efficacy with Septoria tritici turned out to be 100%; with Leptosphaeria nodorum, 70%; in the data set on Puccinia recondita, 92%; in the data set with Alternaria solani, 94%; in the data set on Sphaerotheca fuliginea, 79%; with Pyrenophora teres [2], 100%. In addition, in the data set on Pyrenophora teres [3], the Efficacy is listed as 93%. Moreover, the log partition coefficient (logP) in data set [1] was found to be 4.51.
Consider `C[Si](C)(Cc1ccccc1)CN(C(=O)c1cccnc1C(F)F)C1CC1` [Example 92], for which the Efficacy with Leptosphaeria nodorum worked out at 80%; with Alternaria solani, 78%; in the data set with Pyrenophora teres [2], 90%; with Botrytis cinerea it was 98%. For the same compound, the logP in [1] is listed as 3.80.
The like results for `C[Si](C)(CN(C(=O)c1cccnc1C(F)F)C1CC1)c1ccc2ccccc2c1` [Example 79] were, in that order, 90%, 89%, 95%, 70% and 4.11.

Values taken from patent US9617286B2, “Fungicide N-[(trisubstitutedsilyl)methyl]-carboxamide derivatives” (BAYER INTELLECTUAL PROPERTY GMBH, priority 2011, dated 2017).
